These results are taken from patent US11098040B2, “Compounds and methods of use” (Ferro Therapeutics, Inc., priority 2018, dated 2021).

In one experiment the test system is MCF-10A. Nature of the experiment: Cell viability assay (CellTiter Glo), non-tumorigenic breast epithelial cell line MCF-10A. As to conditions: Homo sapiens, 96 hours. The format is cell-based. The protocol: (§1) Cell viability assay was performed to assess the potency of the compounds in human cancer cell lines KP4 (pancreatic ductal adenocarcinoma), MiaPaCa-2 (pancreatic carcinoma), AsPC-1 (pancreatic adenocarcinoma, ascites), 143B (osteosarcoma), and SJSA-1 (osteosarcoma). Selected compounds were also assayed in a human breast epithelial cell line MCF-10A, a nontumorigenic cell line as a control to assess differential activity. Cells at a density of 500-5,000 cells/well were seeded in 96-well plates and incubated at 37° C. overnight. A series of 9 different concentrations of compound stocks (500×) were created by 3-fold serial dilution in DMSO. These compounds were further diluted in culture media and then added to cells so that the final DMSO concentration was equal to 0.25% or less. After 96 hours of incubation, 50 μL of CellTiter Glo reagent (Promega) was added to each well and luminescence was measured after 10 minutes using EnVision (PerkinElmer). Compounds titrated from top concentration of up to 30 μM. The select compounds were tested initially from 30 μM as the top concentration in duplicates (range of 4.6 nM-30 μM). […] Luminescence from cells treated with DMSO alone was set as Max and % of inhibition was calculated as follows: Inhibition %=(Max-Sample value)/Max*100. Data was analyzed using XL-fit software (ID Business Solutions Ltd.). IC50, relative IC50, or % of top inhibition was calculated.
Paclitaxel was used as the positive control for cytotoxicity.
For orientation: ATP-based viability assays read luminescence as a measure of living cells.

Another experiment has as its system 786-O. Nature of the experiment: Cell proliferation (Alamar Blue) assay, 786-O renal cell carcinoma, with/without ferrostatin. The format is cell-based. As to conditions: Homo sapiens, 786-0, Cell Line 786-O; read-out: IC50. The protocol:
Cell viability assay was performed to assess the potency of the compounds in human cancer cell lines 786-O (renal cell carcinoma) and SJSA-1 (osteosarcoma). Additional cell lines, such as those described above in Example 4 as well as various others, e.g., pancreatic cancer cell lines (Panc 02.13, BxPC-3, Panc 12, Panc 02.03, Panc 6.03, PSN-1, HPAC, and Capan-1) and prostate cancer cell lines (PC-3, DU145, 22Rv1, NCI-H660, BPH1, LNCaP, BM-1604, and MDA PCa 2b), were tested for select compounds as shown in Table 25.
Cells (SJSA-1, 786-O and A431) were seeded (5000 cells/100 μL/well) in 96-well tissue culture plate and incubated at 37° C./5% CO2 for 16-24 hours. The cells were then treated with compounds (25 μL of 5×). The compound concentrations were 10-0.0005 μM prepared in 3-fold serial dilutions with final DMSO concentration of 1%. The plates were then incubated for 24 h at 37° C./5% CO2 in a moist environment. Then Alamar Blue™ reagent (final concentration 1×-12.5 μL) was added to each well and incubated for 1.5 hours at 37° C./5% CO2. The plates were read on fluorescence reader at 540 nm excitation and 590 nm emission wavelengths. The IC50 values were subsequently determined using a sigmoidal dose-response curve (variable slope) in GraphPad Prism® 5 software.
Studies have shown that lipophilic antioxidants, such as ferrostatin, can rescue cells from GPX4 inhibition-induced ferroptosis. For instance, mesenchymal state GPX4-knockout cells can survive in the presence of ferrostatin, however, when the supply of ferrostatin is terminated, these cells undergo ferroptosis (see, e.g., Viswanathan et al., Nature 547:453-7, 2017). […] Accordingly, the ability of a molecule to induce ferroptotic cancer cell death, and that such ability is admonished by the addition of ferrostatin, is clear indication that the molecule is an GPX4 inhibitor.

A further experiment relates to SJSA-1. Nature of the experiment: Cell proliferation (Alamar Blue) assay, SJSA-1 osteosarcoma, with/without ferrostatin. As to conditions: Homo sapiens, SJSA-1, Cell Line SJSA-1; read-out: IC50. The experiment is classed as cell-based, human. In a few lines:
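Cells seeded at 5000/well, 16-24 h, then exposed 24 h at 37° C to compound, 10-0.0005 μM in 3-fold dilutions, 1% DMSO final. Alamar Blue fluorescence (ex 540/em 590 nm) read after 1.5 h; IC50 from variable-slope sigmoidal fit.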
On the technique in general: The colour change of resazurin is a common sign of viable cells or microbes.

Another experiment has as its system A549. As to the kind of experiment: Cell viability assay, A549 cells. The format is cell-based. As to conditions: Homo sapiens, A549, Cell Line A549; read-out: IC50. The procedure:
Example 5: Inducer Compound Effect on Growth of A549 and KP4 Cells
as §1, with “in” for “in human”, “line” for “lines”, “adenocarcinoma).” for “adenocarcinoma), MiaPaCa-2 (pancreatic carcinoma), AsPC-1 (pancreatic adenocarcinoma, ascites), 143B (osteosarcoma), and SJSA-1 (osteosarcoma). Selected compounds were also assayed in a human breast epithelial cell line MCF-10A, a nontumorigenic cell line as a control to assess differential activity.”, “1,000-10,000” for “500-5,000”, “All” for “Compounds titrated from top concentration of up to 30 μM. The select”, “calculated. […]” for “calculated.”

One may read the IC50 as the point on the concentration scale where inhibition reaches its midpoint.

As for `COC(=O)[C@H]1Cc2c([nH]c3ccccc23)[C@H](c2ccc(C(=O)OCC3(C)CC3)cc2)N1C(=O)CCl` [Example 84], inhibition in the experiment on MCF-10A was half-maximal at 480 nM (IC50).

In the case of `C#CC(=O)N1[C@@H](c2ccc(F)cc2)c2[nH]c3ccccc3c2C[C@@H]1C` [Compound 206], the figures for the IC50 in the experiment with 786-O, in the experiment on SJSA-1 and in the experiment with A549 were 1100 nM, 468 nM and 21.8 µM, respectively.

For the molecule `C#CC(=O)N1[C@@H](CCCC)Cc2c([nH]c3ccccc23)[C@@H]1C12CC(F)(C1)C2` [Compound 154], the 50% inhibitory concentration (IC50) in the experiment on 786-O is 116 nM; in the experiment on SJSA-1 it was 108 nM; in the experiment on A549, 7.95 µM.

For `C#CC(=O)N1[C@@H](CCCC)Cc2c([nH]c3ccccc23)[C@@H]1c1ccc(F)cc1` [Compound 205], the IC50 with 786-O is 61.9 nM; in the experiment on SJSA-1 it was 32.4 nM; in the experiment on A549 it was 4.41 µM.

Regarding `C#CC(=O)N1[C@@H](c2ccc(C#N)cc2)c2[nH]c3ccccc3c2C[C@@H]1C` [Compound 194], the IC50 in the experiment with 786-O came out at 286 nM; in the experiment with SJSA-1, 265 nM; in the experiment with A549, 14.3 µM.

In the case of `C=C(F)C(=O)N1[C@@H](CCCC)Cc2c([nH]c3ccccc23)[C@@H]1c1ccc(F)cc1` [Compound 186], the values for the concentration for half-maximal inhibition (IC50) with 786-O, with SJSA-1 and in the experiment on A549 were greater than 30000 nM, greater than 30000 nM and greater than 30 µM, respectively.

As for `C#CC(=O)N1[C@@H](c2ccc(F)cc2)c2[nH]c3ccccc3c2C[C@@H]1C#N` [Compound 190], the half-maximal inhibitory concentration (IC50) was determined as 1200 nM in the experiment with 786-O, 908 nM in the experiment with SJSA-1 and 3.05 µM in the experiment with A549.

As to `C#CC(=O)N1[C@@H](c2ccc(Cl)cc2)c2[nH]c3ccccc3c2C[C@@H]1C` [Compound 196], the 50% inhibitory concentration (IC50) in the experiment with 786-O is 267 nM; in the experiment with SJSA-1, 133 nM; with A549 it was 20.6 µM.

With `C#CCOc1ccc2[nH]c3c(c2c1)C[C@H](C)N(C(=O)CCl)[C@H]3c1ccc(NC23CC4CC(CC(C4)C2)C3)cc1` [Compound 207], the IC50 was 214 nM in the experiment on 786-O, 86.8 nM in the experiment on SJSA-1 and 13.3 µM with A549.

For the molecule `C#CC(=O)N1[C@@H](c2cc(F)cc(F)c2)c2[nH]c3ccccc3c2C[C@@H]1C` [Compound 198], the values for the IC50 with 786-O, in the experiment with SJSA-1 and with A549 were 181 nM, 90 nM and 11.2 µM, respectively.

`C[C@H]1Cc2c([nH]c3ccccc23)[C@H](c2ccc(F)cc2)N1C(=O)CCl` [Compound 221]: the values for the IC50 in the experiment with 786-O, in the experiment on SJSA-1 and with A549 were 137 nM, 93.5 nM and 2.81 µM, respectively.

Consider `C=C(C(=O)N1[C@@H](CCCC)Cc2c([nH]c3ccccc23)[C@@H]1c1ccc(F)cc1)C(F)(F)F` [Compound 184], for which the IC50 with 786-O was 12300 nM; in the experiment with SJSA-1 it was 16200 nM; with A549, greater than 30 µM.

Regarding `C#CC(=O)N1[C@@H](c2ccc(OC)cc2)c2[nH]c3ccccc3c2C[C@@H]1C` [Compound 193], the IC50 was found to be 223 nM in the experiment with 786-O, 175 nM with SJSA-1 and 13.3 µM with A549.

Take `C#CC(=O)N1[C@@H](c2ccc(F)cc2F)c2[nH]c3ccccc3c2C[C@@H]1C` [Compound 200]: the 50% inhibitory concentration (IC50) in the experiment with 786-O came to 701 nM; in the experiment on SJSA-1, 448 nM; in the experiment with A549 it was 10.9 µM.

With `C[C@H]1Cc2c([nH]c3ccccc23)[C@H](C23CC(F)(C2)C3)N1C(=O)CCl` [Compound 226], the values for the IC50 with 786-O, with SJSA-1 and in the experiment on A549 were 1260 nM, 1160 nM and 8.62 µM, respectively.

On to `COC(=O)[C@H]1Cc2c([nH]c3ccccc23)[C@H](c2ccc(C(=O)OCC3CCCCC3)cc2)N1C(=O)CCl` [Example 89], for which half-maximal inhibition in the experiment with MCF-10A (IC50) required 420 nM.

For `C#CC(=O)N1[C@@H](CCCC)Cc2c([nH]c3ccc(OC)cc23)[C@@H]1c1ccc(F)cc1` [Compound 155], the concentration for half-maximal inhibition (IC50) in the experiment with 786-O came to 113 nM; in the experiment on SJSA-1, 81 nM; in the experiment with A549 it was 8.52 µM.

With `C#CC(=O)N1[C@@H](c2ccc(C3CCOCC3)cc2)c2[nH]c3ccccc3c2C[C@@H]1C` [Compound 192], the half-inhibitory concentration (IC50) stood at 194 nM in the experiment on 786-O, 120 nM with SJSA-1 and 14.2 µM with A549.

Take `C=CC(=O)N1[C@@H](CCCC)Cc2c([nH]c3ccccc23)[C@@H]1c1ccc(F)cc1` [Compound 179]: the IC50 with 786-O was greater than 30000 nM; with SJSA-1, greater than 30000 nM; in the experiment on A549, 27.4 µM.

For the molecule `C#CC(=O)N1[C@@H](CCCC)Cc2c([nH]c3c(F)cc(CO)cc23)[C@@H]1c1ccc(F)cc1` [Compound 134], the IC50 was 8190 nM in the experiment on 786-O, 146 nM with SJSA-1 and greater than 30 µM in the experiment on A549.

Regarding `C#CC(=O)N1[C@@H](c2c(F)cccc2F)c2[nH]c3ccccc3c2C[C@@H]1C` [Compound 201], the 50% inhibitory concentration (IC50) turned out to be 642 nM in the experiment with 786-O, 190 nM with SJSA-1 and 14.8 µM with A549.

Turning to `C[C@H]1Cc2c([nH]c3ccccc23)[C@H](c2ccc(S(F)(F)(F)(F)F)cc2)N1C(=O)CCl` [Compound 222], the concentration for half-maximal inhibition (IC50) with 786-O is 170 nM; in the experiment on SJSA-1 it was 115 nM; in the experiment on A549, 3.35 µM.

Regarding `CC(=O)O[C@H]1C(=O)[C@@]2(C)[C@H]([C@H](OC(=O)c3ccccc3)[C@]3(O)C[C@H](OC(=O)[C@H](O)[C@@H](NC(=O)c4ccccc4)c4ccccc4)C(C)=C1C3(C)C)[C@]1(OC(C)=O)CO[C@@H]1C[C@@H]2O` [paclitaxel, Paclitaxel, reference compound], 1 nM corresponded to half-maximal inhibition with MCF-10A (IC50).
